Laboratory results taken from patent US20120083476A1, “HETEROARYL-SUBSTITUTED SPIROCYCLIC DIAMINE UREA MODULATORS OF FATTY ACID AMIDE HYDROLASE” (Janssen Pharmaceutica NV, priority 2009, published 2012).
Structures can show the parent of a compound that is named as a salt. Where two headings read alike, the source gives them in different places.

What was measured:
Rat FAAH = molecular target: T1, Rat FAAH (Rattus norvegicus, UniProt P97612); assay: Assay Method 2: rat FAAH assay (3H-anandamide hydrolysis in cell homogenate); type: biochemical; settings: read-out: Assay 2 IC50
T1 construct: expressed in transfected cells; host or cells: SK-N-MC cells stably transfected with rat FAAH cDNA (G418 selection)
T1 sequence (P97612 1-579): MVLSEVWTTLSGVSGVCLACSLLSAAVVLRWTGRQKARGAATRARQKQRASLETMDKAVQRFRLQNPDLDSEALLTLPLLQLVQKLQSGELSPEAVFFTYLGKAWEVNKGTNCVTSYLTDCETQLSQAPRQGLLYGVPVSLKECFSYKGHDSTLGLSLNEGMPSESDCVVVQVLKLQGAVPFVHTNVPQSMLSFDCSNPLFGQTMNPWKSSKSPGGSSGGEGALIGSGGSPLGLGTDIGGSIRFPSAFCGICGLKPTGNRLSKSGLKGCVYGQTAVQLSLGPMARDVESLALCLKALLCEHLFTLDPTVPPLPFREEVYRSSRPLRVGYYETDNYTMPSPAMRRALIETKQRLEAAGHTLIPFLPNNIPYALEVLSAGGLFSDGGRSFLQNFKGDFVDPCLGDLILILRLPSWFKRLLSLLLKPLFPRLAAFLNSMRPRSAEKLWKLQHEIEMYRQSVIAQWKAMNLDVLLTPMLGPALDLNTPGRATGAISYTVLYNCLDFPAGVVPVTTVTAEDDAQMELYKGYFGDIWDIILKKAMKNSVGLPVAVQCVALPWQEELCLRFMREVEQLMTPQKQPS
How it was run: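 Homogenates of T84 cells or SK-N-MC cells stably transfected with rat FAAH, in pH 9 Tris/EDTA/glycerol/Triton buffer, incubated 1 h at room temperature with 3H-anandamide. Released labeled ethanolamine separated from substrate on activated charcoal and counted by scintillation; values averaged over runs.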

FAAH = molecular target: T2, FAAH (Homo sapiens, UniProt O00519); assay: Assay Method 1: human FAAH assay (3H-anandamide hydrolysis in cell homogenate); type: biochemical; set-up: expressed in transfected cells; host or cells: SK-N-MC cells stably transfected with human FAAH cDNA (G418 selection); alternatively T84 cell pellets
T2 sequence (O00519 1-579): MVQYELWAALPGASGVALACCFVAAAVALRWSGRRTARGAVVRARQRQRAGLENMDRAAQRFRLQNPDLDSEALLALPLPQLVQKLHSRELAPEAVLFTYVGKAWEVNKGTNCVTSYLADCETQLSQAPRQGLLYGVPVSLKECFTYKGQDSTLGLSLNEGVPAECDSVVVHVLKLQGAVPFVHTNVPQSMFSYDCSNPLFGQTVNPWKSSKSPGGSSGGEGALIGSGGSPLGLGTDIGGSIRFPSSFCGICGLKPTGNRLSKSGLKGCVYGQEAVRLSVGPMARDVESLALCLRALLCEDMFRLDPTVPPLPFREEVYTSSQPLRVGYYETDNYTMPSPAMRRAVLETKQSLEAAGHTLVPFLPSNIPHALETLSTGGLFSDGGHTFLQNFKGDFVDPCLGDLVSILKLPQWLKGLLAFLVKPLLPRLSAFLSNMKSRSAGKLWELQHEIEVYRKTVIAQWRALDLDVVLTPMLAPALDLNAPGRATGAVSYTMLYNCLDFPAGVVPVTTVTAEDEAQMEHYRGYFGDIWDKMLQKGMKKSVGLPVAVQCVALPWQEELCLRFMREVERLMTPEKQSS
How it was run: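 Homogenates of T84 cells or SK-N-MC cells stably transfected with human FAAH, in pH 9 Tris/EDTA buffer with 0.02% Triton X-100. Incubated 1 h at rt with compound and 80 nM (final) [3H-ethanolamine]-anandamide. Released 3H-ethanolamine separated on charcoal filters and counted by scintillation.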

SMILES | IC50 (Rat FAAH) | IC50 (FAAH; read-out: Assay 1 IC50) | IC50 (FAAH)
O=C(Nc1noc2cccnc12)N1CC2(CCN(Cc3cccc(Oc4ccc(Cl)cc4)c3)CC2)C1 [Example 67, 7-[3-(4-Chloro-phenoxy)-benzyl]-2,7-diaza-spiro[3.5]nonane-2-carboxylic acid isoxazolo[4,5-b]pyridin-3-ylamide, trifluoroacetic acid salt] | 0.01 µM | 0.16 µM | 
O=C(Nc1cccc2nonc12)N1CC2(CCN(Cc3cccc(Oc4ccc(Cl)cc4)c3)CC2)C1 [Example 52, 7-[3-(4-Chloro-phenoxy)-benzyl]-2,7-diaza-spiro[3.5]nonane-2-carboxylic acid benzo[1,2,5]oxadiazol-4-ylamide, trifluoroacetic acid salt] | 0.67 µM | 0.66 µM | 
O=C(Nc1cccnc1)N1CCC2(CCCN2Cc2cccc(Oc3ccc(Cl)cc3)c2)CC1 [Example 93, 1-[3-(4-Chloro-phenoxy)-benzyl]-1,8-diaza-spiro[4.5]decane-8-carboxylic acid pyridin-3-ylamide] | 0.48 µM | 1.1 µM | 
O=C(Nc1cnc2cccnn12)N1CC2(CCN(Cc3cccc(Oc4ccc(Cl)cc4)c3)CC2)C1 [Example 28, 7-(3-(4-chlorophenoxy)benzyl)-N-(imidazo[1,2-b]pyridazin-3-yl)-2,7-diazaspiro[3.5]nonane-2-carboxamide] | 0.01 µM |  | 0.32 µM
O=C(Nc1ccc(-n2cncn2)nc1)N1CC2(CCN(Cc3cccc(Oc4ccc(Cl)cc4)c3)CC2)C1 [Example 46, 7-[3-(4-Chloro-phenoxy)-benzyl]-2,7-diaza-spiro[3.5]nonane-2-carboxylic acid (6-[1,2,4]triazol-1-yl-pyridin-3-yl)-amide, trifluoroacetic acid salt] | 1 µM | 1 µM | 
O=C(Nc1cccnc1)N1CC2(CCN(Cc3cccc(Oc4ccccc4Cl)c3)CC2)C1 [Example 121, 7-[3-(2-Chloro-phenoxy)-benzyl]-2,7-diaza-spiro[3.5]nonane-2-carboxylic acid pyridin-3-ylamide] | 1.2 µM | 0.03 µM | 
O=C(Nc1ccc(-n2cccn2)nc1)N1CC2(CCN(Cc3cccc(Oc4ccc(Cl)cc4)c3)CC2)C1 [Example 45, 7-[3-(4-Chloro-phenoxy)-benzyl]-2,7-diaza-spiro[3.5]nonane-2-carboxylic acid (6-pyrazol-1-yl-pyridin-3-yl)-amide, trifluoroacetic acid salt] | 0.1 µM | 0.04 µM | 
O=C(Nc1cnc2ccccn12)N1CCCC2(CN(Cc3cccc(Oc4ccc(Cl)cc4)c3)C2)C1 [Example 34, 2-(3-(4-chlorophenoxy)benzyl)-N-(imidazo[1,2-a]pyridin-3-yl)-2,6-diazaspiro[3.5]nonane-6-carboxamide] | 0.12 µM | > 10 µM | 
O=C(Nc1ccc(-n2nccn2)nc1)N1CCC2(CCCN2Cc2cccc(Oc3ccc(Cl)cc3)c2)C1 (centres unmarked) [Example 8, 1-[3-(4-Chloro-phenoxy)-benzyl]-1,7-diaza-spiro[4.4]nonane-7-carboxylic acid (6-[1,2,3]triazol-2-yl-pyridin-3-yl)-amide] | 3 µM | 8 µM | 
O=C(Nc1cccnc1)N1CC2(CCN(Cc3cccc(Oc4ccc5c(c4)OC(F)(F)O5)c3)CC2)C1 [Example 118, 7-[3-(2,2-Difluoro-benzo[1,3]-dioxol-5-yloxy)-benzyl]-2,7-diaza-spiro[3.5]nonane-2-carboxylic acid pyridin-3-ylamide] | 0.6 µM | 0.16 µM | 
O=C(Nc1cccnc1)N1CC2(CCN(Cc3cccc(Oc4ccc(S(=O)(=O)C(F)(F)F)cc4)c3)CC2)C1 [Example 129, 7-[3-(4-Trifluoromethanesulfonyl-phenoxy)-benzyl]-2,7-diaza-spiro[3.5]nonane-2-carboxylic acid pyridin-3-ylamide] | 8 µM | 1.7 µM | 
O=C(Nc1ccnc(C(F)(F)F)n1)N1CC2(CCN(Cc3cccc(Oc4ccc(Cl)cc4)c3)CC2)C1 [Example 71, 7-[3-(4-Chloro-phenoxy)-benzyl]-2,7-diaza-spiro[3.5]nonane-2-carboxylic acid (2-trifluoromethyl-pyrimidin-4-yl)-amide, trifluoroacetic acid salt] | 5 µM | > 10 µM | 
O=C(Nc1ccc(N2CCCCC2)nc1)N1CC2(CCN(Cc3cccc(Oc4ccc(Cl)cc4)c3)CC2)C1 [Example 81, 7-(3-(4-chlorophenoxy)benzyl)-N-(6-(piperidin-1-yl)pyridin-3-yl)-2,7-diazaspiro[3.5]nonane-2-carboxamide, trifluoroacetic acid salt] | 3 µM | 1.6 µM | 
O=C(Nc1ccc(-n2nccn2)nc1)N1CCC2(CCN(Cc3cccc(Oc4ccc(Cl)cc4)c3)CC2)CC1 [Example 14, 9-[3-(4-Chloro-phenoxy)-benzyl]-3,9-diaza-spiro[5.5]undecane-3-carboxylic acid (6-[1,2,3]triazol-2-yl-pyridin-3-yl)-amide] | 0.05 µM | 0.03 µM | 
Cc1cc(NC(=O)N2CC3(CCN(Cc4cccc(Oc5ccc(Cl)cc5)c4)CC3)C2)nn1C [Example 61, 7-[3-(4-Chloro-phenoxy)-benzyl]-2,7-diaza-spiro[3.5]nonane-2-carboxylic acid (1,5-dimethyl-1H-pyrazol-3-yl)-amide, trifluoroacetic acid salt] | > 10 µM | > 10 µM | 
O=C(Nc1ccc(-n2nccn2)nc1)N1CCC2(CC1)CN(Cc1cccc(Oc3ccc(Cl)cc3)c1)C2 [Example 6] | 0.02 µM | 0.01 µM | 
O=C(Nc1cnc2ccccn12)N1CC2(CCN(Cc3cccc(Oc4ccc(Cl)cc4)c3)CC2)C1 [Example 29, 7-(3-(4-chlorophenoxy)benzyl)-N-(imidazo[1,2-a]pyridin-3-yl)-2,7-diazaspiro[3.5]nonane-2-carboxamide] | 0.01 µM | 0.22 µM | 
O=C(Nc1cccnc1)N1CC2(CCN(Cc3ccc(OC(F)(F)F)cc3)CC2)C1 [Example 103, N-(pyridin-3-yl)-7-(4-(trifluoromethoxy)benzyl)-2,7-diazaspiro[3.5]nonane-2-carboxamide] | > 10 µM | 1.3 µM | 
O=C(Nc1cccnc1F)N1CC2(CCN(Cc3cccc(Oc4ccc(Cl)cc4)c3)CC2)C1 [Example 80, 7-(3-(4-chlorophenoxy)benzyl)-N-(2-fluoropyridin-3-yl)-2,7-diazaspiro[3.5]nonane-2-carboxamide, trifluoroacetic acid salt] | 0.57 µM | 0.14 µM | 
O=C(Nc1ccc(-n2nccn2)nc1)N1CCC2(CCN(Cc3cccc(Oc4ccc(Cl)cc4)c3)CC2)C1 [Example 91, 8-[3-(4-Chloro-phenoxy)-benzyl]-2,8-diaza-spiro[4.5]decane-2-carboxylic acid (6-[1,2,3]triazol-2-yl-pyridin-3-yl)-amide, trifluoroacetic acid salt] | 0.26 µM | 0.2 µM | 
COc1nccc(NC(=O)N2CC3(CCN(Cc4cccc(Oc5ccc(Cl)cc5)c4)CC3)C2)n1 [Example 72, 7-[3-(4-Chloro-phenoxy)-benzyl]-2,7-diaza-spiro[3.5]nonane-2-carboxylic acid (2-methoxy-pyrimidin-4-yl)-amide, trifluoroacetic acid salt] | 0.06 µM | 1.7 µM | 
O=C(Nc1ccc(-n2nccn2)nc1)N1CCC2(CCN(Cc3cccc(Oc4ccc(Cl)cc4)c3)C2)C1 (centres unmarked) [Example 11, 7-[3-(4-Chloro-phenoxy)-benzyl]-2,7-diaza-spiro[4.4]nonane-2-carboxylic acid (6-[1,2,3]triazol-2-yl-pyridin-3-yl)-amide] | 0.03 µM | 0.17 µM | 
